In ChEMBL document CHEMBL1201862, “PubChem BioAssay data set” (2004):
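A five-concentration, 48-hour dose response in 96-well plates underlies each endpoint, interpolated linearly between surrounding concentrations. GI50 marks 50% less growth.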 The source made the active and inactive calls. Cut-off read from the data, not from the text of the source: active = GI50 up to about 1.1 µM and inactive = higher.

Experiments:
Assay in all cases: growth of human tumour cells (NCI), 48 h
[1] = tested on: 786-0
[2] = tested on: BT-549
[3] = tested on: CAKI-1
[4] = tested on: DLD-1
[5] = tested on: DMS-273
[6] = tested on: DU-145
[7] = tested on: HCT-116
[8] = tested on: HT-29
[9] = tested on: Hs-578T
[10] = tested on: M14
[11] = tested on: MCF7
[12] = tested on: MOLT-4
[13] = tested on: NCI-H23
[14] = tested on: NCI/ADR-RES
[15] = tested on: OVCAR-8
[16] = tested on: RPMI-8226
[17] = tested on: SF-268
[18] = tested on: SK-MEL-2
[19] = tested on: SK-MEL-5
[20] = tested on: SN12C
[21] = tested on: SR
[22] = tested on: SW-620
[23] = tested on: A498
[24] = tested on: A549
[25] = tested on: ACHN
[26] = tested on: CCRF-CEM
[27] = tested on: COLO 205
[28] = tested on: EKVX
[29] = tested on: HCC 2998
[30] = tested on: HCT-15
[31] = tested on: HL-60
[32] = tested on: HOP-62
[33] = tested on: HOP-92
[34] = tested on: IGROV-1
[35] = tested on: K562
[36] = tested on: KM12
[37] = tested on: LOX IMVI
[38] = tested on: MDA-MB-231
[39] = tested on: MDA-MB-435
[40] = tested on: MDA-N
[41] = tested on: Malme-3M
[42] = tested on: NCI-H226
[43] = tested on: NCI-H460
[44] = tested on: NCI-H522
[45] = tested on: OVCAR-3
[46] = tested on: OVCAR-4
[47] = tested on: OVCAR-5
[48] = tested on: PC-3
[49] = tested on: RXF 393
[50] = tested on: SF-295
[51] = tested on: SF-539
[52] = tested on: SK-MEL-28
[53] = tested on: SK-OV-3
[54] = tested on: SNB-19
[55] = tested on: SNB-75
[56] = tested on: T47D
[57] = tested on: TK-10
[58] = tested on: U-251
[59] = tested on: UACC-257
[60] = tested on: UACC-62
[61] = tested on: UO-31

In the case of COc1ccc2c(c1)-c1nn(CCCN(C)C)c3ccc([N+](=O)[O-])c(c13)N2, the GI50 [1] is reported as 0.0991 µM (active), the GI50 [2] is reported as 1.23 µM (inactive) and the GI50 [3] is reported as 0.261 µM (active). For the same compound, the GI50 [4] was 0.181 µM (active), the GI50 [5] was 0.161 µM (active) and the GI50 [6] was 0.254 µM (active). The GI50 [7] was 0.0787 µM (active), the GI50 [8] was 0.102 µM (active) and the GI50 [9] was 0.48 µM (active). For the same compound, the GI50 [10] was 0.361 µM (active), the GI50 [11] was 0.239 µM (active) and the GI50 [12] was 0.106 µM (active). For the same compound, the GI50 [13] was 0.398 µM (active), the GI50 [14] was 0.124 µM (active) and the GI50 [15] was 0.121 µM (active). For the same compound, the GI50 [16] was 0.201 µM (active), the GI50 [17] was 0.207 µM (active) and the GI50 [18] was 0.676 µM (active). The GI50 [19] was 0.33 µM (active), the GI50 [20] was 0.103 µM (active) and the GI50 [21] was 0.13 µM (active). The GI50 [22] was 0.0719 µM (active).
For O=C(CCSC(CC(=O)c1ccc(Cl)cc1)c1ccc(Cl)cc1)Nc1ccc(Cl)cc1 (centres undefined), the GI50 [1] was 13.8 µM (inactive), the GI50 [23] was 12.4 µM (inactive) and the GI50 [24] was 14.6 µM (inactive). The GI50 [25] was 14.4 µM (inactive), the GI50 [2] was 13.5 µM (inactive) and the GI50 [3] was 18.4 µM (inactive). The GI50 [26] was 2.09 µM (inactive), the GI50 [27] was 18.6 µM (inactive) and the GI50 [6] was 14 µM (inactive). For the same compound, the GI50 [28] was 12.7 µM (inactive), the GI50 [29] was 14 µM (inactive) and the GI50 [7] was 5.86 µM (inactive). For the same compound, the GI50 [30] was 10.8 µM, the GI50 [31] was 4.1 µM (inactive) and the GI50 [32] was 13.3 µM (inactive). The GI50 [33] was 17.6 µM (inactive), the GI50 [8] was 9.23 µM (inactive) and the GI50 [9] was 26.3 µM (inactive). The GI50 [34] was 14.9 µM (inactive), the GI50 [35] was 4.06 µM (inactive) and the GI50 [36] was 3.21 µM (inactive). For the same compound, the GI50 [37] was 5.83 µM (inactive), the GI50 [10] was 14.4 µM (inactive) and the GI50 [11] was 3.72 µM (inactive). The GI50 [38] was 15.2 µM (inactive), the GI50 [39] was 12.3 µM (inactive) and the GI50 [40] was 9.68 µM (inactive). The GI50 [12] was 3.01 µM (inactive), the GI50 [41] was 16.9 µM (inactive) and the GI50 [42] was 20.3 µM (inactive). The GI50 [13] was 16.3 µM (inactive), the GI50 [43] was 10.2 µM (inactive) and the GI50 [44] was 14.5 µM (inactive). The GI50 [14] was 15.5 µM (inactive), the GI50 [45] was 14.1 µM (inactive) and the GI50 [46] was 14.7 µM (inactive). The GI50 [47] was 16.4 µM (inactive), the GI50 [15] was 14.9 µM (inactive) and the GI50 [48] was 14.1 µM (inactive). The GI50 [16] was 2.19 µM (inactive), the GI50 [49] was 14.9 µM (inactive) and the GI50 [17] was 15.2 µM (inactive). The GI50 [50] was 9.44 µM (inactive), the GI50 [51] was 18.4 µM (inactive) and the GI50 [52] was 15.4 µM (inactive). For the same compound, the GI50 [18] was 15.5 µM (inactive), the GI50 [19] was 15.9 µM (inactive) and the GI50 [53] was 20.7 µM (inactive). The GI50 [20] was 12.4 µM (inactive), the GI50 [54] was 13.7 µM (inactive) and the GI50 [55] was 21.8 µM (inactive). The GI50 [21] was 2.91 µM (inactive), the GI50 [22] was 2.88 µM (inactive) and the GI50 [56] was 6.03 µM (inactive). The GI50 [57] was 14.6 µM (inactive), the GI50 [58] was 9.06 µM (inactive) and the GI50 [59] was 15.7 µM (inactive). For the same compound, the GI50 [60] was 10.2 µM (inactive) and the GI50 [61] was 14 µM (inactive).
For CCCCC/C(=N\c1[nH]nnc1C(N)=O)OCC, the GI50 [1] was > 100 µM (inactive), the GI50 [23] was > 100 µM (inactive) and the GI50 [24] was > 100 µM (inactive). The GI50 [25] was > 100 µM (inactive), the GI50 [2] was > 100 µM (inactive) and the GI50 [3] was > 100 µM (inactive). The GI50 [26] was > 100 µM (inactive), the GI50 [27] was > 100 µM (inactive) and the GI50 [6] was > 100 µM (inactive). The GI50 [28] was > 100 µM (inactive), the GI50 [29] was > 100 µM (inactive) and the GI50 [7] was > 100 µM (inactive). The GI50 [30] was > 100 µM, the GI50 [31] was > 100 µM (inactive) and the GI50 [32] was > 100 µM (inactive). For the same compound, the GI50 [33] was 26.2 µM (inactive), the GI50 [8] was > 100 µM (inactive) and the GI50 [9] was > 100 µM (inactive). For the same compound, the GI50 [34] was > 100 µM (inactive), the GI50 [35] was > 100 µM (inactive) and the GI50 [36] was > 100 µM (inactive). The GI50 [37] was > 100 µM (inactive), the GI50 [10] was > 100 µM (inactive) and the GI50 [11] was > 100 µM (inactive). The GI50 [38] was > 100 µM (inactive), the GI50 [39] was > 100 µM (inactive) and the GI50 [40] was > 100 µM (inactive). The GI50 [12] was > 100 µM (inactive), the GI50 [41] was > 100 µM (inactive) and the GI50 [42] was > 100 µM (inactive). The GI50 [13] was > 100 µM (inactive), the GI50 [43] was > 100 µM (inactive) and the GI50 [44] was > 100 µM (inactive). For the same compound, the GI50 [14] was > 100 µM (inactive), the GI50 [45] was > 100 µM (inactive) and the GI50 [46] was > 100 µM (inactive). The GI50 [47] was > 100 µM (inactive), the GI50 [15] was > 100 µM (inactive) and the GI50 [48] was > 100 µM (inactive). The GI50 [16] was > 100 µM (inactive), the GI50 [49] was > 100 µM (inactive) and the GI50 [17] was > 100 µM (inactive). The GI50 [50] was > 100 µM (inactive), the GI50 [51] was > 100 µM (inactive) and the GI50 [52] was > 100 µM (inactive). The GI50 [18] was > 100 µM (inactive), the GI50 [19] was > 100 µM (inactive) and the GI50 [53] was > 100 µM (inactive). For the same compound, the GI50 [20] was > 100 µM (inactive), the GI50 [54] was > 100 µM (inactive) and the GI50 [55] was > 100 µM (inactive). For the same compound, the GI50 [21] was > 100 µM (inactive), the GI50 [22] was > 100 µM (inactive) and the GI50 [56] was > 100 µM (inactive). For the same compound, the GI50 [57] was > 100 µM (inactive), the GI50 [58] was > 100 µM (inactive) and the GI50 [59] was > 100 µM (inactive). The GI50 [60] was > 100 µM (inactive) and the GI50 [61] was > 100 µM (inactive).
In the case of c1ccc(-c2cc3[nH]c4ccccc4[nH]c-3cc(-c3ccccc3)nn2)cc1, the GI50 [1] is reported as 29.2 µM (inactive), the GI50 [23] is reported as 22.8 µM (inactive) and the GI50 [24] is reported as 40.4 µM (inactive). For the same compound, the GI50 [25] was 24.9 µM (inactive), the GI50 [2] was > 100 µM (inactive) and the GI50 [3] was 91.8 µM (inactive). The GI50 [26] was 49.3 µM (inactive), the GI50 [27] was > 100 µM (inactive) and the GI50 [6] was 52.7 µM (inactive). The GI50 [28] was > 100 µM (inactive), the GI50 [29] was 40 µM (inactive) and the GI50 [7] was 33.6 µM (inactive). The GI50 [30] was 87.7 µM, the GI50 [31] was 20.6 µM (inactive) and the GI50 [32] was 26.3 µM (inactive). The GI50 [33] was > 100 µM (inactive), the GI50 [8] was 50.9 µM (inactive) and the GI50 [9] was 66.4 µM (inactive). The GI50 [34] was 32.1 µM (inactive), the GI50 [35] was > 100 µM (inactive) and the GI50 [36] was 46.9 µM (inactive). For the same compound, the GI50 [37] was 72.3 µM (inactive), the GI50 [10] was > 100 µM (inactive) and the GI50 [11] was 51.3 µM (inactive). For the same compound, the GI50 [38] was 80 µM (inactive), the GI50 [39] was 64.3 µM (inactive) and the GI50 [40] was > 100 µM (inactive). The GI50 [12] was > 100 µM (inactive), the GI50 [41] was 62.4 µM (inactive) and the GI50 [42] was 45.6 µM (inactive). The GI50 [13] was > 100 µM (inactive), the GI50 [43] was 30 µM (inactive) and the GI50 [44] was 71 µM (inactive). The GI50 [14] was > 100 µM (inactive), the GI50 [45] was 22.7 µM (inactive) and the GI50 [46] was 56.2 µM (inactive). The GI50 [47] was > 100 µM (inactive), the GI50 [15] was 54.2 µM (inactive) and the GI50 [48] was 55.1 µM (inactive). For the same compound, the GI50 [16] was 88.1 µM (inactive), the GI50 [49] was 76.9 µM (inactive) and the GI50 [17] was 53 µM (inactive). The GI50 [50] was 24.4 µM (inactive), the GI50 [51] was 39.6 µM (inactive) and the GI50 [52] was > 100 µM (inactive). The GI50 [18] was > 100 µM (inactive), the GI50 [19] was 74.6 µM (inactive) and the GI50 [53] was 17.7 µM (inactive). For the same compound, the GI50 [20] was > 100 µM (inactive), the GI50 [54] was 41.6 µM (inactive) and the GI50 [55] was 30.4 µM (inactive). For the same compound, the GI50 [21] was 96.2 µM (inactive), the GI50 [22] was 81.7 µM (inactive) and the GI50 [56] was > 100 µM (inactive). The GI50 [57] was 22.9 µM (inactive), the GI50 [58] was 55.6 µM (inactive) and the GI50 [59] was > 100 µM (inactive). For the same compound, the GI50 [60] was > 100 µM (inactive) and the GI50 [61] was 21.3 µM (inactive).
